From the METLIN SMRT retention time set (Domingo-Almenara et al. 2019)

Test: gradient 5% acetonitrile 3 min, to 50% in 2 min, to 85% in 15 min, held 3 min, 100 µL/min
Conditions: column: Zorbax Extend-C18 2.1 x 50 mm; eluents: water / acetonitrile, 0.1% formic acid
Outline: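 Using water and acetonitrile that each contained 0.1% formic acid, mixtures of ~100 pure standards were separated at 100 μL/min on a Zorbax Extend-C18 column (2.1 × 50 mm, 1.8 μm). The HPLC fed a quadrupole time-of-flight mass spectrometer working in positive and negative ionization mode, with dead and dwell volumes of 40 μL and 900 μL. Data were acquired over 3 months. Retention time was read from computationally picked adduct peaks after manual inspection of each.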

SMILES | RP-LC retention time [s]
CCCN1C(=O)CN(S(=O)(=O)c2ccccc2)CC1(C)C(=O)NCc1ccc(F)cc1 (stereo not drawn) | 827
COc1cc(OC)cc(-c2nc(-c3ccc4c(c3)oc(=O)n4C)no2)c1 | 1060
O=C(NCCc1c[nH]c2ccccc12)C1CCN(c2nc3ccccc3[nH]2)CC1 | 615
CCCN1C(=O)C2(c3ccccc31)c1[nH]c3ccccc3c1CCN2C(=O)NCC (stereo not drawn) | 793
CCCn1cc(C2=CCN(S(=O)(=O)c3cccc(C(F)(F)F)c3)CC2)c2cccnc21 | 1180
CC(C)c1noc(-c2ccn3c(CC(=O)N4CCSCC4)nnc3c2)n1 | 726
Cc1oc2c(c1C(=O)Nc1ccc(F)c(F)c1)C1=NCCN1C=N2 | 643
O=C(NCc1ccc(F)cc1F)C1CCCN(c2ncnc3c2oc2ccccc23)C1 (stereo not drawn) | 762
Cc1sc(NC(=O)CC(C)C)nc1-c1ccc2c(c1)NC(=O)CO2 | 822
O=C(Cn1nc2c(cc1=O)CCCCC2)Nc1nc(-c2ccncc2)cs1 | 620
CC(=O)N1CCCN(C(=O)c2ccc(C#N)cc2)CC1 | 589
Cc1cc(C)c2c(-n3cccc3)nn(CC(=O)NC3CCCCCC3)c2n1 | 1050
O=C([C@@H]1C[C@H](Oc2ccccc2)CN1C(=O)c1n[nH]c(=O)c2ccccc12)N1CCCC1 | 703
Cc1cc(C)c2c(n1)SCC(=O)N2CCCC(=O)NCCCN1CC(C)CC(C)C1 (stereo not drawn) | 595
CC(C)Cn1ccc2c(cc(C(=O)NCc3cc(F)cc(F)c3)n2C)c1=O | 850
CCn1nc2ccc(S(=O)(=O)N3CCOCC3)cn2c1=O | 645
O=C(Cc1c[nH]c2ccccc12)NCC1CCN(c2cc(-c3ccncc3)[nH]n2)CC1 | 595
CCOCCCNC(=O)C1(C)Cn2c(ccc2-c2ccco2)C(=O)N1c1ccc(OC)c(OC)c1 (stereo not drawn) | 752
CCc1cccc(C)c1Nc1c(-c2ccc(SC)cc2)nc2nc(C)cc(C)n12 | 867
CC(C)(C)c1noc(-c2ccnc(-n3cnc(C(=O)NC4CC4)c3)c2)n1 | 877

SMILES | RP-LC retention time [s]
Cc1nn(C)c(C)c1S(=O)(=O)N1CCN(C(=O)CCc2c[nH]c3ccccc23)CC1 | 708
COc1cc([C@@H]2c3cc4c(cc3[C@H](O)[C@@H](CO)[C@@H]2C(=O)NCC(C)C)OCO4)cc(OC)c1OC | 668
CCC1CN2C=NC(N3CCN(S(=O)(=O)Cc4cccc(F)c4)CC3)=CC2=N1 (stereo not drawn) | 680
CCOc1ccccc1NC(=O)N(Cc1cccs1)C1CCN(CC)CC1 | 698
CC(C)N1CCn2cc(S(=O)(=O)Nc3ccc(F)c(F)c3)cc2C1=O | 794
O=C(O)c1cnc(NCCc2cccs2)nc1-c1ccccn1 | 765
Cc1ccc(CNC(=O)c2nnc(-c3oc4c(C)cccc4c3C)o2)o1 | 1140
CN(C(=O)c1cc2c(=O)n(C)c(=O)n(C)c2s1)c1cccc(Cl)c1 | 827
CCOc1ccccc1-n1c(C(C)N2CCN(C(=O)COc3ccc(Cl)cc3)CC2)nc2ccccc2c1=O (stereo not drawn) | 802
Cc1noc(C)c1Cc1ccc(C(=O)NCC2Cn3cccc3C(=O)N2C)o1 (stereo not drawn) | 669
COCCn1cc(CCNC(=O)Nc2cccc(Cl)c2)c2cccnc21 | 762
O=c1n(Cc2ccccc2Cl)nc2ccc(S(=O)(=O)N3CCCC3)cn12 | 866
CCOc1cccc(CNC(=O)c2ccc3c(=O)n(Cc4ccccc4)c(N(CC)CC)nc3c2)c1 | 1170
Cc1ccc2nc(-c3ccc(Cl)cc3)c(Nc3ccc(Cl)cc3)n2c1 | 831
CCOC(=O)c1c(S(=O)(=O)N2CCC(C(=O)N3CCc4ccccc43)CC2)c(C)n(C)c1C | 913
N#CC1=CN(c2ccc(C(F)(F)F)cc2)c2ccccc2S1(=O)=O | 963
Cc1noc(-c2cccc(OC3CN(C(=O)NC4CCCCC4)C3)c2)n1 | 891
O=C(Nc1ccc2c(c1)OCCO2)C1CC(=O)N(CCc2c[nH]c3ccc(Cl)cc23)C1 (stereo not drawn) | 827
O=c1n(CCOc2ccc(F)cc2)nc2c(S(=O)(=O)N3CCCCC3)cccn12 | 894
Cc1nc(-c2cn(C)c3ncccc23)sc1C(=O)NCc1ccccc1 | 863

SMILES | RP-LC retention time [s]
Cc1ccc(-c2nc3ccc(C)cn3c2Nc2ccc3c(c2)OCCO3)cc1 | 715
Cc1c2c(nn1-c1ccc(SCc3ccccc3F)nn1)CCC2 | 1270
CCCNC(=O)c1ccc2c(=O)n(Cc3ccc(C)cc3)c(N(CC)CC)nc2c1 | 1060
CCc1sc(NC(=O)c2cc(C)on2)nc1-c1ccccc1 | 1060
O=C(NCc1ccco1)C1CCN(C(=O)c2ncn3c2COC(c2ccccc2)C3)CC1 (stereo not drawn) | 699
CN1CCN(S(=O)(=O)c2cc(-c3nnc(C4CCCC4)o3)co2)CC1 | 619
Cc1cc(C)cc(NC(=O)Nc2ccc3nnc(C)n3c2)c1 | 661
O=C(Cn1cnc2c(-c3ccc(F)cc3)csc2c1=O)N1CCCC1 | 783
CCc1nc(-c2ccc3c(c2)CCN3C(=O)c2ccco2)no1 | 914
Fc1cccc(-c2nc(-c3cn(-c4ccccc4)nn3)no2)c1 | 1040
CCCC(NC(=O)c1ccc(C)cc1)C(=O)Nc1nc2ccccc2[nH]1 (stereo not drawn) | 716
Cc1ccc(C2Cn3nnc(-c4nc(-c5ccc(F)c(F)c5)no4)c3CO2)c(C)c1 (stereo not drawn) | 1230
CN1CCCn2nc(C3CCN(C(=O)CSc4ccncc4)CC3)cc2C1=O | 569
CCN(Cc1cn(CC)nc1C)C(=O)CC1=C2CCCCC2N(C)C1=O (stereo not drawn) | 648
COCCCNC(=O)c1ccc(OCc2nnc(C(=O)Nc3ccccc3F)s2)cc1 | 806
O=c1c2c(CO)c(-c3ccccc3)nn2ccn1Cc1ccccc1 | 896
O=C(COc1ccc2c3c(c(=O)oc2c1)CCC3)N[C@H](Cc1c[nH]c2ccccc12)C(=O)O | 793
COc1cc(NC(=O)Nc2nc(-c3nc4ccccc4s3)cs2)cc(OC)c1OC | 863

Next, values leading:

RP-LC retention time [s] | SMILES
808 | COCCN1CC2(CCN(S(=O)(=O)c3c(C)cc(C)cc3C)CC2)C1c1ccccc1 (stereo not drawn)
541 | CCNc1cc(N2CCCC(CCC(=O)NCCN3CCN(C)CC3)C2)ncn1 (stereo not drawn)
678 | Cc1ccc2nc(-c3ccc(O)cc3)c(Nc3ccccc3C)n2c1
1240 | Cc1nn(-c2ccc(Cl)cc2)c2nc(N3CCCC(C(=O)NCc4cccc(F)c4)C3)sc12 (stereo not drawn)
587 | CCOC(=O)CC(=O)Nc1cc2c(cc1N1CCCC1)n(C)c(=O)n2C
699 | COc1ccc(CC(C)(O)CNC(=O)Nc2cccs2)cc1 (stereo not drawn)
823 | Cc1ccc(Nc2nc(C)cc(N3CCN(S(=O)(=O)c4cc(F)ccc4C)CC3)n2)cc1
858 | COC(=O)c1c(NC(C)c2ccc(F)cc2)c2cccc(Cl)c2[nH]c1=O (stereo not drawn)
899 | CCC(=O)N1CCc2sc(C(=O)N3CCN(c4ccc(Cl)cc4)CC3)cc2C1
760 | CC(=O)Nc1ccc(SCc2nnc(-c3ccc4c(c3)OCO4)o2)cc1
975 | N#Cc1ccc(C(=O)N2CCN(S(=O)(=O)c3cc(-c4noc(C5CCC5)n4)cs3)CC2)cc1
652 | CNC(=O)O[C@H]1COc2ccc(N3CCN(C4COC4)CC3)cc2[C@@H]1NC(=O)c1ccc(F)cc1
956 | Cn1cc(-c2nc(C(=O)N3CCN(c4ccccc4F)CC3)cs2)c2cccnc21
1010 | Cc1[nH]nc(-c2c(C)sc(C)c2S(=O)(=O)N2CCN(c3ccccc3F)CC2)c1C
741 | COc1ccccc1NC(=O)C1CCc2nc(N3CCOCC3)ncc2C1 (stereo not drawn)
584 | COc1cc(NC(=O)N2CCN(C)c3ncccc32)cc(OC)c1OC
1100 | Cc1cc2c(C)c(C(=O)N3CCCCC3)oc2c(S(=O)(=O)N2CCN(c3ncccn3)CC2)c1C
706 | O=C1NCCc2ccc(NC(=O)C3(c4ccc(F)cc4)CC3)cc21
734 | Cc1ccc(-n2cc3c(c(C(=O)Nc4cccnc4)c2=O)CC(C)(C)CC3=O)cc1
606 | Cc1ccc(NC(=O)c2cn3c(n2)CCCC3)cc1
861 | CCc1noc(NC(C)=O)c1-c1ccc(C)c(S(=O)(=O)N(C)c2ccc(C)cc2)c1
785 | COc1ccc(C2(CNS(=O)(=O)c3ccc4c(c3)OCCO4)CCOCC2)cc1
972 | CC1(C(=O)NCc2ccc(F)cc2)CCCN(C(=O)Nc2ccc(F)c(Cl)c2)C1 (stereo not drawn)
1150 | Cc1ccc(C)c(NC(=O)Cn2ccc3ccc(-c4nnc(C)o4)cc32)c1
640 | Cn1cnc(S(=O)(=O)N2CCC(C(=O)NCc3cccs3)CC2)c1
703 | O=C(NCc1ccc2c(c1)OCO2)C1CCCN(C(=O)C2Sc3ccccc3NC2=O)C1 (stereo not drawn)
704 | Cc1ccccc1NC(=O)N(C)CC1CCOC1 (stereo not drawn)
1010 | O=C(Nc1nnc(SCc2cccc(F)c2)s1)C1CCCCC1
749 | CCOC(=O)c1nc(NCc2ccc(OC)cc2)c2ccccc2n1
587 | Cc1cc2[nH]c(C(=O)NC(C)c3cccnc3)c(CN3CCCCC3)c2s1 (stereo not drawn)
